The source of these data is patent publication US10952436B2, “Microbiocidal quinoline (thio)carboxamide derivatives” (SYNGENTA PARTICIPATIONS AG, priority 2017, dated 2021).

A word on the melting point: it is the temperature of the solid-liquid transition.

A value given as a limit tells only on which side of the number the result lay.

The subject of data set [1] is Magnaporthe grisea (Pyricularia oryzae). The data set is described as follows: microbe, parasite or virus in culture. Type of data set: cell-based. Particulars: read-out: control of Magnaporthe grisea.
Another data set deals with Sclerotinia sclerotiorum. Kind of data set: Sclerotinia sclerotiorum/Liquid Culture (Cottony Rot). The note with it: read-out: control of Sclerotinia sclerotiorum.
For data set [2], the system named is Botryotinia fuckeliana (Botrytis cinerea). Kind of data set: Botryotinia fuckeliana (Botrytis cinerea)/Liquid Culture (Gray Mould). Type of data set: cell-based. The note with it: 200 ppm, liquid culture, compared to untreated control, 3-4 days after application, read-out: control of Botryotinia fuckeliana.
The subject of data set [3] is Fusarium culmorum. Kind of data set: whole plant or invertebrate. The data set is classed as in vivo. Particulars: in Triticum aestivum, read-out: control of Fusarium culmorum.
Data set [4] concerns Glomerella lagenarium (Colletotrichum lagenarium). The data set is described as follows: Glomerella lagenarium (Colletotrichum lagenarium)/Liquid Culture (Anthracnose). Particulars: Colletotrichum orbiculare; 200 ppm; liquid culture, compared to untreated control, 3-4 days after application; read-out: control of Glomerella lagenarium. Type of data set: cell-based.
The test system of data set [5] is Fusarium culmorum. The data set is described as follows: microbe, parasite or virus in culture. Particulars: read-out: control of Fusarium culmorum. Type of data set: cell-based.
For data set [6], the system named is Monographella nivalis (Microdochium nivale). Kind of data set: Monographella nivalis (Microdochium nivale)/Liquid Culture (Foot Rot Cereals). Particulars: 200 ppm, liquid culture, compared to untreated control, 4-5 days after application, read-out: control of Monographella nivalis. Type of data set: cell-based.

Description for Sclerotinia sclerotiorum: Mycelia fragments of a newly grown liquid culture of the fungus are directly mixed into nutrient broth (Vogels broth). After placing a (DMSO) solution of test compound into a microtiter plate (96-well format) the nutrient broth containing the fungal material is added. The test plates are incubated at 24° C. and the inhibition of growth is determined photometrically 3-4 days after application.

Molecule `Cc1c(NC(=O)[C@](C)(Cc2ccccc2)CC(F)(F)F)cnc2c(F)cccc12` [Compound F-13, (2R)-2-benzyl-4,4,4-trifluoro-N-(8-fluoro-4-methyl-3-quinolyl)-2-methyl-butanamide] showed a melting point of 71 to 73 °C. Further, the inhibition of growth at 200 ppm in data set [1] was at least 80%. In the data set with Sclerotinia sclerotiorum, the inhibition of growth at 20 ppm was at least 80%. The inhibition of growth at 200 ppm in data set [2] is at least 80%. Moreover, the pest or weed control at 200 ppm in the data set on Fusarium culmorum [3] is at least 80%. Moreover, the inhibition of growth at 200 ppm in data set [4] was at least 80%. In addition, the inhibition of growth at 200 ppm in the data set on Fusarium culmorum [5] is at least 80%. Moreover, the inhibition of growth at 200 ppm in data set [6] was at least 80%.
In turn, `CC(Cc1ccccc1)(CC(F)(F)F)C(=O)Nc1cnc2c(Cl)cccc2c1` (stereo not shown) [Compound E-51, 2-benzyl-N-(8-chloro-3-quinolyl)-4,4,4-trifluoro-2-methyl-butanamide] gave a melting point of 104 to 106 °C. Moreover, the inhibition of growth at 200 ppm in data set [1] is at least 80%. In addition, the inhibition of growth at 20 ppm in the data set on Sclerotinia sclerotiorum was at least 80%. Further, the inhibition of growth at 200 ppm in data set [2] was at least 80%. Further, the pest or weed control at 200 ppm with Fusarium culmorum [3] is at least 80%. In addition, the inhibition of growth at 200 ppm in data set [4] is at least 80%. Besides, the inhibition of growth at 200 ppm with Fusarium culmorum [5] is at least 80%. For the same molecule, the inhibition of growth at 200 ppm in data set [6] is at least 80%.
Turning to `Cc1c(NC(=O)[C@@](C)(Cc2ccccc2)CC(F)(F)F)cnc2c(F)cccc12` [Compound F-14, (2S)-2-benzyl-4,4,4-trifluoro-N-(8-fluoro-4-methyl-3-quinolyl)-2-methyl-butanamide], the melting point fell in the range of 74 to 76 °C. Moreover, in data set [1], the inhibition of growth at 200 ppm is at least 80%. The inhibition of growth at 20 ppm with Sclerotinia sclerotiorum is at least 80%. Besides, the inhibition of growth at 200 ppm in data set [2] was at least 80%. The pest or weed control at 200 ppm in the data set with Fusarium culmorum [3] was at least 80%. Further, the inhibition of growth at 200 ppm in data set [4] was at least 80%. Moreover, in the data set on Fusarium culmorum [5], the inhibition of growth at 200 ppm is at least 80%. The inhibition of growth at 200 ppm in data set [6] is at least 80%.
`Cc1nc2c(F)cccc2cc1NC(=O)C(C)(Cc1ccccc1)CC(F)(F)F` (stereo not shown) [Compound E-47, 2-benzyl-4,4,4-trifluoro-N-(8-fluoro-2-methyl-3-quinolyl)-2-methyl-butanamide]: the melting point was in the range of 130 to 132 °C. For the same molecule, in data set [1], the inhibition of growth at 200 ppm is at least 80%. In the data set with Sclerotinia sclerotiorum, the inhibition of growth at 20 ppm was at least 80%. The inhibition of growth at 200 ppm in data set [2] was at least 80%. In addition, in the data set with Fusarium culmorum [3], the pest or weed control at 200 ppm is at least 80%. Also, the inhibition of growth at 200 ppm in data set [4] is at least 80%. For the same molecule, the inhibition of growth at 200 ppm in the data set on Fusarium culmorum [5] is at least 80%.
As to `CC(Cc1ccccc1)(CC1(F)CC1)C(=O)Nc1cnc2c(F)cccc2c1` (stereo not shown) [Compound E-25, 2-benzyl-3-(1-fluorocyclopropyl)-N-(8-fluoro-3-quinolyl)-2-methyl-propanamide], the melting point fell in the range of 162 to 164 °C. In data set [1], the inhibition of growth at 200 ppm is at least 80%. Besides, the inhibition of growth at 20 ppm in the data set with Sclerotinia sclerotiorum was at least 80%. Moreover, the inhibition of growth at 200 ppm in data set [2] was at least 80%. Moreover, in the data set with Fusarium culmorum [3], the pest or weed control at 200 ppm is at least 80%. Also, the inhibition of growth at 200 ppm in data set [4] is at least 80%. In addition, the inhibition of growth at 200 ppm in the data set with Fusarium culmorum [5] was at least 80%.
In turn, `CC1(C[C@@](C)(Cc2ccccc2)C(=O)Nc2cnc3c(F)cccc3c2)CC1` [Compound F-10, (2S)-2-benzyl-N-(8-fluoro-3-quinolyl)-2-methyl-3-(1-methylcyclopropyl) propanamide] returned a melting point of 58 to 60 °C. The inhibition of growth at 200 ppm in data set [1] is at least 80%. Also, in the data set on Sclerotinia sclerotiorum, the inhibition of growth at 20 ppm was at least 80%. Also, the inhibition of growth at 200 ppm in data set [2] was at least 80%. In data set [4], the inhibition of growth at 200 ppm is at least 80%. Besides, in the data set with Fusarium culmorum [5], the inhibition of growth at 200 ppm was at least 80%. The inhibition of growth at 200 ppm in data set [6] was at least 80%.
`C=C(C)CC(C)(Cc1cccc(F)c1)C(=O)Nc1cc2cccc(F)c2nc1C` (stereo not shown) [Compound E-12, N-(8-fluoro-2-methyl-3-quinolyl)-2-[(3-fluorophenyl)methyl]-2,4-dimethyl-pent-4-enamide] yielded a melting point of 124 to 126 °C. Moreover, the inhibition of growth at 200 ppm in data set [1] was at least 80%. For the same molecule, in the data set with Sclerotinia sclerotiorum, the inhibition of growth at 20 ppm was at least 80%. For the same molecule, the inhibition of growth at 200 ppm in data set [2] was at least 80%. Moreover, in data set [4], the inhibition of growth at 200 ppm was at least 80%. Moreover, the inhibition of growth at 200 ppm in the data set on Fusarium culmorum [5] is at least 80%. Further, the inhibition of growth at 200 ppm in data set [6] was at least 80%.
